# Several values for one entry are separate records, joined by “and”; a condition that tells them apart may be missing. Identical values can stand only once. Entries after “also recorded” stand apart in the source; their conditions may differ.
# Experiments:
# E. coli MenE = target: T1, E. coli MenE (Escherichia coli, UniProt P37353); experiment: MenE-MenB coupled enzyme inhibition assay (DHNA-CoA production at 392 nm); format: biochemical; conditions: for IC50: ecMenE 50 nM, OSB 60 μM, ATP 240 μM, CoA 240 μM, pH 7.4; for inhibition of MenE (in words): MenE coupled assay
# T1 construct: His6 (N); made in house; host or cells: E. coli BL21(DE3) pLysS
# T1 sequence (P37353 whole entry): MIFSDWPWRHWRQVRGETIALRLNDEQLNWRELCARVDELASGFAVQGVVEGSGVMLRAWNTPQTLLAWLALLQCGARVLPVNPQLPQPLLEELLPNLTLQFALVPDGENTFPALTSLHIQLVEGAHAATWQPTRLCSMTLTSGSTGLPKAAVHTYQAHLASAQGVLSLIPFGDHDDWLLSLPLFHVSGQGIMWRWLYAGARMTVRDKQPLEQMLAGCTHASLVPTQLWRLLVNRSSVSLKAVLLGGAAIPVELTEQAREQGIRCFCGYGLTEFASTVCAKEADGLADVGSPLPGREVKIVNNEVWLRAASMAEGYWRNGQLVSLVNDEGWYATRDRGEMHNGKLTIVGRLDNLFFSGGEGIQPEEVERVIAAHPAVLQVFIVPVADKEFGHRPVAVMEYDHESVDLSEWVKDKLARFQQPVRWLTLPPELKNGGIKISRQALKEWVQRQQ
# Protocol: Enzyme inhibition studies were performed in 20 mM NaHPO4 buffer (pH 7.4) containing 150 mM NaCl and 1 mM MgCl2 using a […] coupled assay in which MenE is rate-limiting. […] Reactions were initiated by addition of ecMenE (50 nM), and the production of DHNA-CoA was monitored at 392 nm (ε392=4000 M^−1 cm^−1).
# With these linker analogues in hand, their inhibition of E. coli MenE using the previously reported MenE-Meng coupled assay was evaluated (Lu, X. et al. Bioorg. Med. Chem. Lett. 2008, 18, 5963). Consistent with predictions from the docking experiments, all but one of the analogues inhibited MenE, albeit with modest IC50 values compared to OSB-AMS (1) (Table 2).
# E. coli MenE(wt) = target: T2, E. coli MenE(wt) (Escherichia coli, UniProt P37353); experiment: Isothermal titration calorimetry, wild-type MenE; format: binding
# T2 construct: His6 (N); made in house; host or cells: E. coli BL21(DE3) pLysS
# T2 sequence (P37353 whole entry): as above
# Protocol: (§1) ITC was performed using VP-ITC instrument at 22° C. Inhibitor (1 mM) and E. coli MenE(wt) (30 μM) were prepared in 20 mM NaHPO4, pH 7.4 buffer containing 150 mM NaCl and 1 mM MgCl2. From the injection syringe, the inhibitor was titrated into the sample cell containing 1.8 mL solution of MenE. The data were fit to a single-binding site model with the Origin software package.
# Next. the binding affinity of the 5 with E. coli MenE was deteremined using isothermal titration calorimetry (ITC).
# E. coli MenE (K437A) = target: T3, E. coli MenE (K437A) (Escherichia coli, UniProt P37353, K437A); experiment: Isothermal titration calorimetry, MenE K437A lynchpin mutant; format: binding; conditions: ITC
# T3 construct: His6 (N); made in house; host or cells: E. coli BL21(DE3) pLysS
# T3 sequence (P37353 1-451 K437A): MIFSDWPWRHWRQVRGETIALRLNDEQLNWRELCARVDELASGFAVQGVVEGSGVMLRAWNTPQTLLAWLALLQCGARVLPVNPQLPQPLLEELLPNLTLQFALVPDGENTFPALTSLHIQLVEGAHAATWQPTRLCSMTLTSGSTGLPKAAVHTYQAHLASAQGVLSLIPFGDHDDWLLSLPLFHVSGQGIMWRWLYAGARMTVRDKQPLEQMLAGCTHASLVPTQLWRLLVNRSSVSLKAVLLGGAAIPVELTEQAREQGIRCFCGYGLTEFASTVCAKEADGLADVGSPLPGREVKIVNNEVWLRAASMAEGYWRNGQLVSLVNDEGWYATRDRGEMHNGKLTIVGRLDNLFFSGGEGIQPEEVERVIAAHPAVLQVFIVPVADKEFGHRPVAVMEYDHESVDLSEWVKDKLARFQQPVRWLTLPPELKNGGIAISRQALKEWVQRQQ
# Protocol: Based on the nucleotide sequence of MenE (from E. coli strain K-12), the forward primer with the sequence of 5′-[…]-3′ and T7 reverse primer were designed, synthesized, and used to introduce the K437A mutation in E. coli MenE. High-fidelity Phusion polymerase (New England BioLabs) was used for standard polymerase chain reaction amplification and mutagenesis.
# as §1
# To probe for these interactions experimentally. the binding affinity of m-phenyl ether analogue 5 to wild-type E. coli MenE and the K437A mutant were compared.
# MRSA (ATCC BAA-1762) = conditions: MRSA (ATCC BAA1762); Matarlo et al. Biochemistry 2015; cited from earlier work
Compound,IC50 (E. coli MenE),"Kd (E. coli MenE(wt); ITC, 22° C, wild-type E. coli MenE)",Kd (E. coli MenE (K437A)),MIC (MRSA (ATCC BAA-1762)),inhibition of MenE (in words) (E. coli MenE),binding in the ITC assay (in words) (E. coli MenE(wt); E. coli MenE)
Nc1ncnc2c1ncn2[C@@H]1O[C@H](COc2cccc(CCC(=O)c3ccccc3C(=O)O)c2)[C@@H](O)[C@H]1O [compound 5],8100 ± 900 nM,244 nM and 249 nM,244 nM,,,
Nc1ncnc2c1ncn2[C@@H]1O[C@H](COS(=O)(=O)NC(=O)CCC(=O)c2ccccc2C(=O)O)[C@@H](O)[C@H]1O [OSB-AMS (1)],,,,31.25 µg/mL,,
"Nc1ncnc2c1ncn2[C@@H]1O[C@H](COc2ccc(CCC(=O)c3ccccc3C(=O)O)cc2)[C@@H](O)[C@H]1O [compound 6, 5′-O-([2-(Carboxyl)phenyl]3-(3-hydroxyphenyl)propannyl)adenosine]",> 200000 nM,,,,no inhibition; also recorded: did not inhibit MenE,no binding
Nc1ncnc2c1ncn2[C@@H]1O[C@H](COc2cc(CCC(=O)c3ccccc3C(=O)O)cc(C(F)(F)F)c2)[C@@H](O)[C@H]1O [compound 8],26500 ± 2300 nM,,,,slightly weaker inhibition,

# From patent publication US20220235088A1 (Memorial Sloan-Kettering Cancer Center, priority 2019, published 2022)
